Holding throughout (assay): NCI anticancer screen, dose series, 48 h
For assay [1], the system named is 786-0 renal.
Assay [2] relates to CAKI-1 renal.
The test system of assay [3] is K-562 leukemia.
In assay [4] the test system is M14 melanoma.
Assay [5] has as its system MOLT-4 leukemia.
In assay [6] the test system is NCI-H23 lung.
The subject of assay [7] is SF-295 CNS.
Assay [8] concerns SN12C renal.
For assay [9], the system named is SNB-19 CNS.
In assay [10] the test system is U251 CNS.

GI50 and TGI data for eight compounds are collected here from PubChem BioAssay (NCI).

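Interpolation was linear, between the two tested concentrations surrounding the appropriate level; five concentrations were tested over 48 hours in 96-well plates. The concentration for 50% growth inhibition is given as GI50. TGI is the concentration that stops growth completely.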 A value given as a limit tells only on which side of the number the result lay.

Consider `O=C1C(Cl)=C(Nc2ccccc2O)C(=O)N1Cc1ccccc1`, for which the GI50 in assay [1] was 16.8 µM; in assay [2] it was 26 µM; in assay [3], 15.5 µM; in assay [4] it was 18.4 µM; in [5] it was 19.6 µM; in assay [6], 17.9 µM. Moreover, the GI50 in [7] is 26.2 µM; in assay [8], 16.4 µM; in [9], 35.8 µM; in assay [10], 19.2 µM. The TGI was 30.4 µM in [1]; 68.7 µM in assay [2]; 33.6 µM in assay [3]; 32.3 µM in [4]; above 100 µM in assay [5]; 31.7 µM in [6]. In addition, the TGI in assay [7] was 52.9 µM; in assay [8], 29.9 µM; in assay [9] it was above 100 µM; in [10] it was 36.5 µM.

Consider `CC1=CC(=O)C(C(O)(C(F)(F)F)C(F)(F)F)C(C)(C)C1` (centres undefined), for which the TGI in assay [1], in [2], in assay [3], in assay [4], in assay [5] and in assay [6] was above 10 µM in each case. The TGI in [7], in [8], in [9] and in [10] was above 10 µM each time.

`CCOC(CN(C)C(=S)Nc1cccc2ccccc12)OCC`: the TGI in assay [1], in assay [2], in [3], in assay [4], in [5] and in assay [6] was above 10 µM in each case. The TGI in [7], in assay [8], in [9] and in [10] was above 10 µM throughout.

For `CC[C@@]1(O)C(=O)OCc2c1cc1n(c2=O)Cc2c-1nc1cc(F)c(C)c3c1c2[C@@H](N)CC3`, the GI50 in assay [1] is below 0.01 µM; in assay [2], below 0.01 µM; in [3], below 0.0117 µM; in [4] it was below 0.01 µM; in assay [5], below 0.01 µM; in assay [6], below 0.01 µM. For the same compound, the GI50 in [7], in [8], in assay [9] and in [10] was below 0.01 µM each time. For the same compound, the TGI in assay [2] is 0.101 µM; in assay [3] it was above 100 µM; in [4], 0.111 µM; in [5], above 100 µM; in assay [6], 0.0638 µM; in [7] it was 0.0915 µM. For the same compound, the TGI in assay [8], in assay [9] and in [10] was above 100 µM each time.

Consider `COc1ccc(Cc2cnc(NC(=O)c3ccc4c(c3)OCCO4)s2)cc1`, for which the GI50 in assay [1] was 0.0493 µM; in assay [2], below 0.0123 µM; in assay [3] it was 0.0157 µM; in [4], 0.0228 µM; in assay [5], 0.0504 µM; in assay [6], 0.0537 µM. Also, the GI50 in [7] was 0.0242 µM; in assay [8] it was 0.0556 µM; in [9], 0.0523 µM; in assay [10], 0.0388 µM. Moreover, the TGI in assay [1] was above 74.3 µM; in assay [2], 15.6 µM; in [3], above 100 µM; in assay [4], 22.4 µM; in assay [5], above 100 µM; in [6] it was above 100 µM. In addition, the TGI in assay [7] was 20.8 µM; in assay [8] it was above 100 µM; in assay [9], 43.2 µM; in [10], above 85.8 µM.

`Cn1c(=O)c2c(ncn2CC(=O)Nc2ccc(-c3ccccc3)nn2)n(C)c1=O`: the GI50 in [1] was above 100 µM; in [2] it was above 100 µM; in assay [3] it was above 100 µM; in assay [4], 10.4 µM; in [5], above 100 µM; in assay [6] it was above 100 µM. Besides, the GI50 in assay [7], in assay [8], in assay [9] and in assay [10] was above 100 µM in each case. Moreover, the TGI in assay [1], in [2], in assay [3], in assay [4], in assay [5] and in assay [6] was above 100 µM each time. The TGI in assay [7], in assay [8], in assay [9] and in [10] was above 100 µM throughout.

On to `COC(=O)CCC1=C(CC(=O)OC)C(C)=N/C1=C\c1[nH]c(-c2ccc[nH]2)cc1OC`, for which the GI50 in [1] is 2.73 µM; in assay [2] it was 3.07 µM; in assay [3], 2.7 µM; in assay [4], 4.51 µM; in [5], 2.31 µM; in assay [6], 4.42 µM. Besides, the GI50 in assay [7] is 3.25 µM; in assay [8], 11.1 µM; in assay [9], 11.6 µM; in assay [10], 2.48 µM. In addition, the TGI in [1] came out at 10.2 µM; in assay [2], 11.6 µM; in [3], 12.5 µM; in assay [4], 16.2 µM; in assay [5], 20.1 µM; in [6], 21 µM. Moreover, the TGI was determined as 15.1 µM in assay [7], 24.9 µM in [8], 31.1 µM in [9] and 12.6 µM in assay [10].

Turning to `C=C1CC[C@@H](C(C)C)C[C@@H]2[C@H]([C@H](O)C[C@]2(C)O)[C@@]2(C)CC[C@@H]1O2`, the GI50 in assay [1] is 18.8 µM; in assay [2], 0.792 µM; in assay [3], 15.8 µM; in assay [4], 19.3 µM; in assay [5] it was 22.8 µM; in assay [6], 20.1 µM. Also, the GI50 in assay [7] is 14.7 µM; in [8] it was 11.2 µM; in assay [9], 19.2 µM; in assay [10] it was 16.9 µM. Besides, the TGI in assay [1] worked out at 33.4 µM; in [2], 18.7 µM; in [3], 29.2 µM; in assay [4] it was 33.4 µM; in assay [5] it was 51.2 µM; in assay [6], 42.7 µM. For the same compound, the TGI in [7] is 32.3 µM; in [8], 23.3 µM; in assay [9] it was 33.2 µM; in assay [10], 30.5 µM.
